Source: article PMC11167047 (Cell Death Discovery, 2024)

What was measured:
Assay in all cases: kinome screen (33PanQinase)
Format in all cases: biochemical
RPS6KA1 = target: T1, RPS6KA1 (Homo sapiens, UniProt Q15418)
T1 construct: purchased Reaction Biology Europe GmbH (formerly ProQinase)
Procedure: (§1) The Kinome Screening was performed by Reaction Biology Europe GmbH (http://reactionbiology.com; Freiburg i. Br., Germany).

SRPK2 = target: T2, SRPK2 (Homo sapiens, UniProt P78362)
T2 construct: purchased Reaction Biology Europe GmbH (formerly ProQinase)
T2 sequence (P78362 whole entry): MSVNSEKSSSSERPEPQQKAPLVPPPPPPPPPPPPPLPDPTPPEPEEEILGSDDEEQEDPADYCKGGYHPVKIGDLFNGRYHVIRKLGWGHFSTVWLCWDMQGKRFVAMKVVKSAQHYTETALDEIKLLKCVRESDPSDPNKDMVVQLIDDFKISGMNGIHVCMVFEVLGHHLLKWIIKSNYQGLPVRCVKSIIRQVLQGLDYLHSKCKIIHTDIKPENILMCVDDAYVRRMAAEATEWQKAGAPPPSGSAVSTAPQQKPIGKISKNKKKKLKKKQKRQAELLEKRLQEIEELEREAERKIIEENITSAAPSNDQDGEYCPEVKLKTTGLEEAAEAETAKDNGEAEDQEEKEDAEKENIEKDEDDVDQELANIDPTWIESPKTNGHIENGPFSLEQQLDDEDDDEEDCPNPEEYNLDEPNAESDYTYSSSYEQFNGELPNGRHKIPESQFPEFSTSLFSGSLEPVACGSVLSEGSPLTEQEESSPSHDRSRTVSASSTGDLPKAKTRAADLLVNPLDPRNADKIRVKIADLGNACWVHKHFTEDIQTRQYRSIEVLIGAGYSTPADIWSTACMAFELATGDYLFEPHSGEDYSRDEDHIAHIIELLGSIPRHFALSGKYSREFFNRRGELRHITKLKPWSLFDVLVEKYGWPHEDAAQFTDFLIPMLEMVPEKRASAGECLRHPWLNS
Procedure: as §1

VRK1 = target: T3, VRK1 (Homo sapiens, UniProt Q99986)
T3 construct: purchased Reaction Biology Europe GmbH (formerly ProQinase)
T3 sequence (Q99986 1-396): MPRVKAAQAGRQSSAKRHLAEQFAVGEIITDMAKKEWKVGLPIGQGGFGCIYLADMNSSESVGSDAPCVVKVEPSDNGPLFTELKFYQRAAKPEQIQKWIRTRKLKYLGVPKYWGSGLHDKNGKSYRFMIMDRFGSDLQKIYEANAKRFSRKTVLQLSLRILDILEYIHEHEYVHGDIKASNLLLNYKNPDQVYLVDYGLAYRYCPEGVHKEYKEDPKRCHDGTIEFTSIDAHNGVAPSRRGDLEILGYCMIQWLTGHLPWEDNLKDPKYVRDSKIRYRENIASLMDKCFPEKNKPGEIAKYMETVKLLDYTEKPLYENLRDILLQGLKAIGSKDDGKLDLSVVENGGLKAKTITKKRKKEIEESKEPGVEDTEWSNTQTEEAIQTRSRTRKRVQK
Procedure: as §1

RPS6KA5 = target: T4, RPS6KA5 (Homo sapiens, UniProt O75582)
T4 construct: purchased Reaction Biology Europe GmbH (formerly ProQinase)
T4 sequence (O75582 whole entry): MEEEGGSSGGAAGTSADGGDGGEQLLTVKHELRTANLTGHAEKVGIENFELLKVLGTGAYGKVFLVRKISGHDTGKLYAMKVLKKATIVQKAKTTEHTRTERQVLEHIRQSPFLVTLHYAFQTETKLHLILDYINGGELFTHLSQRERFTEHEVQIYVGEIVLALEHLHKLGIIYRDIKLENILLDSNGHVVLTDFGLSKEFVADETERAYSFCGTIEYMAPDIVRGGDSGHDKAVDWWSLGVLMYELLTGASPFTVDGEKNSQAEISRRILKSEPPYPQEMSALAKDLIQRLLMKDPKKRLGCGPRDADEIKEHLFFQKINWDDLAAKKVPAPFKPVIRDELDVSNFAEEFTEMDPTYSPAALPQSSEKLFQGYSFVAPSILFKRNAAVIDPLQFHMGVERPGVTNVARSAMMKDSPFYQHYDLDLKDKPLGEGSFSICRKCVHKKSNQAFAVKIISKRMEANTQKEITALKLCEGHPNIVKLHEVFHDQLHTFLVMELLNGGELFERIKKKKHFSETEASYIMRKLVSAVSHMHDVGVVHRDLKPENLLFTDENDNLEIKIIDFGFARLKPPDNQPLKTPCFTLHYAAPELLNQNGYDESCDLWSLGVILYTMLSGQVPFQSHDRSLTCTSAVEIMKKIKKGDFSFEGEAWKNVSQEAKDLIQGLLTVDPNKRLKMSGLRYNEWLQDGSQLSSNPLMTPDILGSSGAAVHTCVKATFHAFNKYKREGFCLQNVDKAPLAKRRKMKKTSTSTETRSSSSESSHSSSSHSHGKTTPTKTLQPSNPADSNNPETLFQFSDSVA
Procedure: as §1

SGK2 = target: T5, SGK2 (Homo sapiens, UniProt Q9HBY8)
T5 construct: purchased Reaction Biology Europe GmbH (formerly ProQinase)
T5 sequence (Q9HBY8 1-367): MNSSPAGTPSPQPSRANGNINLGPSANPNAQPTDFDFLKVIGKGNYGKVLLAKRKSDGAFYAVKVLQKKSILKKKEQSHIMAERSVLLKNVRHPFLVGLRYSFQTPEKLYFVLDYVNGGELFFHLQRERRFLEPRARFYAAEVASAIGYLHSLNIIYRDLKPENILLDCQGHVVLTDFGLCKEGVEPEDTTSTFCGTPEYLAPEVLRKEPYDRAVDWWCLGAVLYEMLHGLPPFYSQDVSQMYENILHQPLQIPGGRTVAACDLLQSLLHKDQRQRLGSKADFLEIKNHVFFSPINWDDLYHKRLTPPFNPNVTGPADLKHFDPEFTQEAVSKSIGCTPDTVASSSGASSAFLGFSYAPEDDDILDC
Procedure: as §1

NEK11 = target: T6, NEK11 (Homo sapiens, UniProt Q8NG66)
T6 construct: purchased Reaction Biology Europe GmbH (formerly ProQinase)
T6 sequence (Q8NG66 1-645): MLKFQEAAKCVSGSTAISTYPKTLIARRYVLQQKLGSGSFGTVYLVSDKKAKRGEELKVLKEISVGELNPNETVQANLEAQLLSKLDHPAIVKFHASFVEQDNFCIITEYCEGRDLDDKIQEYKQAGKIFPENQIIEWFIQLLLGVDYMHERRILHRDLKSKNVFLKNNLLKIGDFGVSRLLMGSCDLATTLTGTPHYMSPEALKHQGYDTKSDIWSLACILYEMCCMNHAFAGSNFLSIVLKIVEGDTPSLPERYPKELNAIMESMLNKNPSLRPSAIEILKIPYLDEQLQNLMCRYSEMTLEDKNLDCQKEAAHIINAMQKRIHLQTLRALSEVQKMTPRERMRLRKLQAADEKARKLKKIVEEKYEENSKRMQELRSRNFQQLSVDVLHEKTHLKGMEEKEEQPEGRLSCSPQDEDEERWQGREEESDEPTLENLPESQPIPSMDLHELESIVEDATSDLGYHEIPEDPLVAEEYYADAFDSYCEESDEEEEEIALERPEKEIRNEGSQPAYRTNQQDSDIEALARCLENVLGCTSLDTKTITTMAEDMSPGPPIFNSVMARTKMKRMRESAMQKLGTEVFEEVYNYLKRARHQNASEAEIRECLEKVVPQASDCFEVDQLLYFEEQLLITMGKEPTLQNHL
Procedure: as §1

PKA = target: T7, PKA (Homo sapiens, UniProt P17612)
T7 construct: purchased Reaction Biology Europe GmbH (formerly ProQinase)
Procedure: as §1

FGFR3 = target: T8, FGFR3 (Homo sapiens, UniProt P22607)
T8 construct: purchased Reaction Biology Europe GmbH (formerly ProQinase)
T8 sequence (P22607 23-806): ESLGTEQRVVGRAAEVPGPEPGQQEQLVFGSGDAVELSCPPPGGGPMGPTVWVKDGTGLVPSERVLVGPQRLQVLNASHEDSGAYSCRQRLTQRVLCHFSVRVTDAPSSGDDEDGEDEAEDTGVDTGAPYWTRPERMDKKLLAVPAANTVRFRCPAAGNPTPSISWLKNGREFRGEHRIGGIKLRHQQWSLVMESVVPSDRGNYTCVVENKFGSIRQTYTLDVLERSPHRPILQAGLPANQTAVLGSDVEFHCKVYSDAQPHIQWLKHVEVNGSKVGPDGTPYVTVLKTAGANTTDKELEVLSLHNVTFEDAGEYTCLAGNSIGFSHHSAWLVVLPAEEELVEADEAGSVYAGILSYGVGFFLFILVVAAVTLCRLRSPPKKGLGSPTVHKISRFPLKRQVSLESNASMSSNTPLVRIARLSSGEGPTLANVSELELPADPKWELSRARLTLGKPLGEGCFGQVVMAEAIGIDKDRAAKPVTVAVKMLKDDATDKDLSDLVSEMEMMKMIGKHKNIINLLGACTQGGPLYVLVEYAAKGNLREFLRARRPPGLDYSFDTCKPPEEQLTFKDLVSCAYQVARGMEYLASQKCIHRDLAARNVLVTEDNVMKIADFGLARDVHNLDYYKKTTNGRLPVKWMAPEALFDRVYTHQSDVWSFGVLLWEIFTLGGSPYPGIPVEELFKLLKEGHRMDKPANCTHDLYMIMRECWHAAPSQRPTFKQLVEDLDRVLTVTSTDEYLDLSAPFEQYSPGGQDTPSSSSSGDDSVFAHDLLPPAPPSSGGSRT
Procedure: as §1

ROCK1 = target: T9, ROCK1 (Homo sapiens, UniProt Q13464)
T9 construct: purchased Reaction Biology Europe GmbH (formerly ProQinase)
T9 sequence (Q13464 whole entry): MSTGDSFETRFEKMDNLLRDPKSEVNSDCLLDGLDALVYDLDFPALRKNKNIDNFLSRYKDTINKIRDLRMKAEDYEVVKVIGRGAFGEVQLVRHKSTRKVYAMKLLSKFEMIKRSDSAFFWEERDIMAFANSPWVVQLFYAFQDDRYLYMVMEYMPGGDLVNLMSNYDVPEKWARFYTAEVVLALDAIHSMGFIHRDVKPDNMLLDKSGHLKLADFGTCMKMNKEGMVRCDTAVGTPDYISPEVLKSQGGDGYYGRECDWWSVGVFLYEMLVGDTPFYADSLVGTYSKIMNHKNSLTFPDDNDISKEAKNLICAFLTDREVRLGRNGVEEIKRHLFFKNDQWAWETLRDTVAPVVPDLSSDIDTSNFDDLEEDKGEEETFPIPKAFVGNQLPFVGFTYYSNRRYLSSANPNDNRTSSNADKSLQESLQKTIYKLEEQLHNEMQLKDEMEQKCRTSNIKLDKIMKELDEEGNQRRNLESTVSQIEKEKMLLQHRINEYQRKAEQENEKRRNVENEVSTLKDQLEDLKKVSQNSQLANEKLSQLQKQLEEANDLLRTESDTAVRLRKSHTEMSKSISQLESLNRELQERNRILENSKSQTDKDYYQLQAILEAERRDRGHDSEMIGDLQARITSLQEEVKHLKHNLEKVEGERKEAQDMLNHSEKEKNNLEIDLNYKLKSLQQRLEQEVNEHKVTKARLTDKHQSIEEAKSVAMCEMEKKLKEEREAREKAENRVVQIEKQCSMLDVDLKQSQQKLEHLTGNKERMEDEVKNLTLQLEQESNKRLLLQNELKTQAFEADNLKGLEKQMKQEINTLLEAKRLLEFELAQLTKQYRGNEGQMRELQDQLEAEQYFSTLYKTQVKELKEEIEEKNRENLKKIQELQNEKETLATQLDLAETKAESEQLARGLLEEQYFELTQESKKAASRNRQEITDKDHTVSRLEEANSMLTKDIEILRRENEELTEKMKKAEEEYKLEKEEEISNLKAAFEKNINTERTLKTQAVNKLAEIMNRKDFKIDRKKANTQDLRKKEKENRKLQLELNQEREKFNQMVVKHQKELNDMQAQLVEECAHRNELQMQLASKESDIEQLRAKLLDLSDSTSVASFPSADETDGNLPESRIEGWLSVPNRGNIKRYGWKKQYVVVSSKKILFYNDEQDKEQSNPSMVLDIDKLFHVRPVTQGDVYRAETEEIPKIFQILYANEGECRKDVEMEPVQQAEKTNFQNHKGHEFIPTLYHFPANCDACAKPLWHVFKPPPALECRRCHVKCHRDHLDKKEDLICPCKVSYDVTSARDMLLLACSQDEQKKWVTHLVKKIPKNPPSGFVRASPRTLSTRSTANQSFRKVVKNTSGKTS
Procedure: as §1

DNAPK = target: T10, DNAPK (Homo sapiens, UniProt P78527)
T10 construct: purchased Reaction Biology Europe GmbH (formerly ProQinase)
Procedure: as §1

LRRK2 = target: T11, LRRK2 (Homo sapiens, UniProt Q5S007)
T11 construct: purchased Reaction Biology Europe GmbH (formerly ProQinase)
Procedure: as §1

BRSK2 = target: T12, BRSK2 (Homo sapiens, UniProt Q8IWQ3)
T12 construct: purchased Reaction Biology Europe GmbH (formerly ProQinase)
T12 sequence (Q8IWQ3 1-736): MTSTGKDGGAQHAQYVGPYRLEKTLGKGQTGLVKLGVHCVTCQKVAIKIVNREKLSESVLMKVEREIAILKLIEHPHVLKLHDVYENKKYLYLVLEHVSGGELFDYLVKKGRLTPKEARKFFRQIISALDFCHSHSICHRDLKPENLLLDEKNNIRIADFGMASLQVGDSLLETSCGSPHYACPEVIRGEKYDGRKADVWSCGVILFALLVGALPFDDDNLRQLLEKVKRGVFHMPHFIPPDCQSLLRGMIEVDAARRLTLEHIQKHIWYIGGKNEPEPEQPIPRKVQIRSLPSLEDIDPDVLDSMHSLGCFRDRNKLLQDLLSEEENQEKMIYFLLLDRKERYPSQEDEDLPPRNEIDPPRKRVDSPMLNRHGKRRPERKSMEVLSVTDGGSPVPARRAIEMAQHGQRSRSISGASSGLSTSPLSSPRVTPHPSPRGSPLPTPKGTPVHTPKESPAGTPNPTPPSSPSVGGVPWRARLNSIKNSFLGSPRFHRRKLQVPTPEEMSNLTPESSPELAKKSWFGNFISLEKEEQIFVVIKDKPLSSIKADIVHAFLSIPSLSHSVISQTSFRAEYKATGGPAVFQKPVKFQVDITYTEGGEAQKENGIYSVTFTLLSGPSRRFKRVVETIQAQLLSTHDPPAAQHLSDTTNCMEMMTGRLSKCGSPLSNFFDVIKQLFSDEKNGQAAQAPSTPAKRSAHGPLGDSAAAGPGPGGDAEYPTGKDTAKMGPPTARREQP
Procedure: as §1

T1 sequence (Q15418 whole entry): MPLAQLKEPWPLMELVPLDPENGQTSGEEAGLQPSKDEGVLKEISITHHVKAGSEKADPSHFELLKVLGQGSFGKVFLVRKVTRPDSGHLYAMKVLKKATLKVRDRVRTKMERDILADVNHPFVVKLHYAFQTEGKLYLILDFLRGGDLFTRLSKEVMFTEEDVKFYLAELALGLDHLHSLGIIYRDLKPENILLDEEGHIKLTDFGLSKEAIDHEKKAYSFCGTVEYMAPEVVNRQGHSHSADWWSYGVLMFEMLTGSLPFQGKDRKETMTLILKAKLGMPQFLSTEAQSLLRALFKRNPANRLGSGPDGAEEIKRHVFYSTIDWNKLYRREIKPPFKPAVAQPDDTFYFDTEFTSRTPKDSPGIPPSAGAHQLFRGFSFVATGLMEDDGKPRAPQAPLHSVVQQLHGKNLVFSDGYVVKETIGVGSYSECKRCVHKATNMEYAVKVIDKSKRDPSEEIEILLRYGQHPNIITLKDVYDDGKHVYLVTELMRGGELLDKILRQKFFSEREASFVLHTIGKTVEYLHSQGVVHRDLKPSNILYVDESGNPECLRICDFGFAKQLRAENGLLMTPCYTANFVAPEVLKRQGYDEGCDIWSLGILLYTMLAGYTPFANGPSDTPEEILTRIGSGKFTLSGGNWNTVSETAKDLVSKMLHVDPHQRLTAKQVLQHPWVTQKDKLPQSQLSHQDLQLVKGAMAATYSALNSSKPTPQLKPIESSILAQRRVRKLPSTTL

`COc1ccnc2[nH]cc(-c3cc(N)nc(N)c3)c12` [meriolin 16] was tested, and the residual kinase activity (RPS6KA1; 0.03 µM) was 46 % of control, the residual kinase activity (RPS6KA1; 0.3 µM) was 22 % of control and the residual kinase activity (SRPK2; 0.03 µM) was 93 % of control. For the same compound, the residual kinase activity (SRPK2; 0.3 µM) was 91 % of control, the residual kinase activity (VRK1; 0.03 µM) was 114 % of control and the residual kinase activity (VRK1; 0.3 µM) was 108 % of control. For the same compound, the residual kinase activity (RPS6KA5; 0.03 µM) was 89 % of control, the residual kinase activity (RPS6KA5; 0.3 µM) was 82 % of control and the residual kinase activity (SGK2; 0.03 µM) was 97 % of control. The residual kinase activity (SGK2; 0.3 µM) was 74 % of control, the residual kinase activity (NEK11; 0.03 µM) was 97 % of control and the residual kinase activity (NEK11; 0.3 µM) was 87 % of control. For the same compound, the residual kinase activity (PKA; 0.03 µM) was 75 % of control, the residual kinase activity (PKA; 0.3 µM) was 43 % of control and the residual kinase activity (FGFR3; 0.03 µM) was 93 % of control. The residual kinase activity (FGFR3; 0.3 µM) was 84 % of control, the residual kinase activity (ROCK1; 0.03 µM) was 24 % of control and the residual kinase activity (ROCK1; 0.3 µM) was 2 % of control. The residual kinase activity (DNAPK; 0.03 µM) was 100 % of control, the residual kinase activity (DNAPK; 0.3 µM) was 97 % of control and the residual kinase activity (LRRK2; 0.03 µM) was 50 % of control. For the same compound, the residual kinase activity (LRRK2; 0.3 µM) was 8 % of control, the residual kinase activity (BRSK2; 0.03 µM) was 111 % of control and the residual kinase activity (BRSK2; 0.3 µM) was 92 % of control.
For `c1ccc(CNc2cc(-c3c[nH]c4ncccc34)ccn2)cc1` [meriolin 36], the residual kinase activity (RPS6KA1; 0.3 µM) was 20 % of control, the residual kinase activity (RPS6KA1; 3 µM) was 10 % of control and the residual kinase activity (SRPK2; 0.3 µM) was 87 % of control. For the same compound, the residual kinase activity (SRPK2; 3 µM) was 55 % of control, the residual kinase activity (VRK1; 0.3 µM) was 104 % of control and the residual kinase activity (VRK1; 3 µM) was 61 % of control. For the same compound, the residual kinase activity (RPS6KA5; 0.3 µM) was 46 % of control, the residual kinase activity (RPS6KA5; 3 µM) was 15 % of control and the residual kinase activity (SGK2; 0.3 µM) was 88 % of control. The residual kinase activity (SGK2; 3 µM) was 32 % of control, the residual kinase activity (NEK11; 0.3 µM) was 105 % of control and the residual kinase activity (NEK11; 3 µM) was 85 % of control. For the same compound, the residual kinase activity (PKA; 0.3 µM) was 12 % of control, the residual kinase activity (PKA; 3 µM) was 2 % of control and the residual kinase activity (FGFR3; 0.3 µM) was 64 % of control. The residual kinase activity (FGFR3; 3 µM) was 20 % of control, the residual kinase activity (ROCK1; 0.3 µM) was 1 % of control and the residual kinase activity (ROCK1; 3 µM) was 1 % of control. For the same compound, the residual kinase activity (DNAPK; 0.3 µM) was 71 % of control, the residual kinase activity (DNAPK; 3 µM) was 25 % of control and the residual kinase activity (LRRK2; 0.3 µM) was 1 % of control. The residual kinase activity (LRRK2; 3 µM) was 1 % of control, the residual kinase activity (BRSK2; 0.3 µM) was 112 % of control and the residual kinase activity (BRSK2; 3 µM) was 61 % of control.
